Measurements as given in paper PMC7996970 (The Biochemical journal, 2020).

Assays:
[1] = target: isocitrate dehydrogenase 1 (IDH1) (Homo sapiens, UniProt O75874, D273L/R132H); assay: isothermal titration calorimetry; assay type: binding
[2] = target: isocitrate dehydrogenase 1 (IDH1) (Homo sapiens, UniProt O75874, D273N); assay: steady-state kinetics, NADPH absorbance at […] nm; assay type: biochemical
[3] = target: isocitrate dehydrogenase 1 (IDH1) (Homo sapiens, UniProt O75874, K217M); assay: steady-state kinetics, NADPH absorbance at […] nm; assay type: biochemical
isocitrate dehydrogenase 1 (IDH1) (Homo sapiens, UniProt O75874, K217M), sequence (O75874 2-414 K217M): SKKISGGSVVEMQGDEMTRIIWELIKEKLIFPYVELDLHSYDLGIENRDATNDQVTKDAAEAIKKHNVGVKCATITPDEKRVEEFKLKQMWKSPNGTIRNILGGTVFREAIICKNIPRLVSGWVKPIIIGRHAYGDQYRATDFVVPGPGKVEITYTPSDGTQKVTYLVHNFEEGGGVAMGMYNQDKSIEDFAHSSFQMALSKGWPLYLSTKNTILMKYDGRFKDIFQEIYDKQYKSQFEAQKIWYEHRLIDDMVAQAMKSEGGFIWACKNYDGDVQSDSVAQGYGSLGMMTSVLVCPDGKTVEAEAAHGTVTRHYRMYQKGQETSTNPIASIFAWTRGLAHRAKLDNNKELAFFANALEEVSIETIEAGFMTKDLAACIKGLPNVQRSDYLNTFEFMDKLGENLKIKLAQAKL

[4] = target: isocitrate dehydrogenase 1 (IDH1) (Homo sapiens, UniProt O75874, D273L); assay: steady-state kinetics, NADPH absorbance at […] nm; assay type: biochemical
isocitrate dehydrogenase 1 (IDH1) (Homo sapiens, UniProt O75874, D273L), sequence (O75874 2-414 D273L): as the sequence (O75874 2-414 K217M) above, with M216K, D272L counted along it

[5] = target: isocitrate dehydrogenase 1 (IDH1) (Homo sapiens, UniProt O75874); assay: steady-state kinetics, NADPH absorbance at […] nm; assay type: biochemical
isocitrate dehydrogenase 1 (IDH1) (Homo sapiens, UniProt O75874), sequence (O75874 2-414): as the sequence (O75874 2-414 K217M) above, with M216K counted along it

[6] = target: isocitrate dehydrogenase 1 (IDH1) (Homo sapiens, UniProt O75874, K217Q); assay: steady-state kinetics, NADPH absorbance at […] nm; assay type: biochemical
isocitrate dehydrogenase 1 (IDH1) (Homo sapiens, UniProt O75874, K217Q), sequence (O75874 2-414 K217Q): as the sequence (O75874 2-414 K217M) above, with M216Q counted along it

[7] = target: isocitrate dehydrogenase 1 (IDH1) (Homo sapiens, UniProt O75874, D273S); assay: steady-state kinetics, NADPH absorbance at […] nm; assay type: biochemical
isocitrate dehydrogenase 1 (IDH1) (Homo sapiens, UniProt O75874, D273S), sequence (O75874 2-414 D273S): as the sequence (O75874 2-414 K217M) above, with M216K, D272S counted along it

isocitrate dehydrogenase 1 (IDH1) (Homo sapiens, UniProt O75874, D273L/R132H), sequence (O75874 2-414 R132H/D273L): as the sequence (O75874 2-414 K217M) above, with R131H, M216K, D272L counted along it
isocitrate dehydrogenase 1 (IDH1) (Homo sapiens, UniProt O75874, D273N), sequence (O75874 2-414 D273N): as the sequence (O75874 2-414 K217M) above, with M216K, D272N counted along it

| Kd [1] [µM] | Structure (SMILES) | Km [2] [µM] | Km [3] [µM] | Km [4] [µM] | Km [5] [µM] | Km [6] [µM] | Km [7] [µM] |
| --- | --- | --- | --- | --- | --- | --- | --- |
| 3.3 ± 0.5 | Cc1ccccc1C(C(=O)NC1CCCCC1)N(C(=O)Cn1ccnc1C)c1cccc(F)c1 (stereo not shown) [AGI-5198] |  |  |  |  |  |  |
|  | O=C(O)CC(C(=O)O)C(O)C(=O)O (stereo not shown) [isocitrate] | 19000 ± 2000 | 150 ± 20 | 1900 ± 200 | 61 ± 5 | 250 ± 20 | 12000 ± 3000 |
